Laboratory results from ChEMBL document CHEMBL1629567, “Pharmacodynamics of cidofovir for vaccinia virus infection in an in vitro hollow-fiber infection model system” (Antimicrob Agents Chemother, 2009).

Experiments:
Vaccinia virus [1] = experiment: Antiviral activity against Vaccinia virus WR infected in cynomolgus monkey with probenecid assessed as decrease in plasma viral titer at 6 dose regimen of 2.5 mg/kg for 13 days; format: functional, Orthopoxvirus vaccinia; parameters: scale not given: the % may be the effect or the level left
[2] = Antiviral activity against Vaccinia virus IHD-J ATCC VR-156 infected in HeLaS3 cells after 3 to 5 days by plaque assay; format: functional, cell-based; details: ATCC VR-156, HeLa S3
Vaccinia virus [3] = experiment: Antiviral activity against Vaccinia virus IHD-W ATCC VR-1441 infected in HeLaS3 cells after 3 to 5 days by plaque assay; format: functional, organism-based; details: Orthopoxvirus vaccinia, IHD-W ATCC VR-1441, HeLa S3
[4] = AUC in cynomolgus monkey with probenecid at 2.5 mg/kg; format: ADME, organism-based, Macaca fascicularis; parameters: dose 2.5 mg/kg; details: plasma
Variola major virus = experiment: Antiviral activity against Variola major virus; format: functional
Vaccinia virus [5] = experiment: Antiviral activity against Vaccinia virus WR infected in cynomolgus monkey with probenecid assessed as decrease in plasma viral titer at 5 dose regimen of 2.5 mg/kg for 13 days; format: functional; details: Orthopoxvirus vaccinia, in Macaca fascicularis, 312 h
[6] = AUC (0 to 24 hrs) in hollow-fiber infection model at >50 uM as continuous infusion; format: ADME; parameters: dose 50 uM, time < 24 hr
[7] = AUC (0 to infinity) in human at 5 mg/kg administered as single dose; format: ADME, organism-based; parameters: time infinity, dose 5 mg/kg; details: plasma
[8] = AUC in cynomolgus monkey with probenecid at 5 mg/kg single dose regimen for 13 days; format: ADME, organism-based, Macaca fascicularis; parameters: dose 5 mg/kg; details: plasma
[9] = AUC in cynomolgus monkey with probenecid at 5 mg/kg six dose regimen for 13 days; format: ADME, organism-based, Macaca fascicularis; parameters: dose 5 mg/kg; details: plasma
[10] = AUC (0 to 24 hrs) in hollow-fiber infection model at 3 uM as continuous infusion; format: ADME; parameters: time < 24 hr, dose 3 uM
[11] = AUC in cynomolgus monkey with probenecid at 5 mg/kg five dose regimen for 13 days; format: ADME, organism-based, Macaca fascicularis; parameters: dose 5 mg/kg; details: plasma

For `Nc1ccn(C[C@@H](CO)OCP(=O)(O)O)c(=O)n1.O.O` [CIDOFOVIR], the Activity (Vaccinia virus [1]) was <10%, the EC50 [2] was 18.7 µM and the EC50 (Vaccinia virus [3]) was 20.6 µM. The AUC [4] was 14400 ng·h/mL, the Activity (Variola major virus) was 6 µM and the Emax at 2.5 mg/kg (Vaccinia virus [5]) was 30%. For the same compound, the AUC(0-t) at 24 h, 50 µM [6] was > 1200 µM·h, the AUC(0-inf) [7] was 75 µM·h and the AUC at 312 h [8] was 103 µM·h. The AUC at 312 h [9] was 617 µM·h, the AUC(0-t) at 24 h, 3 µM [10] was 72 µM·h and the AUC at 312 h [11] was 514 µM·h.
